pIC50: −log10 of the molar value.
Biological target: Insulin-like growth factor 1 receptor (Homo sapiens, UniProt P08069)
Assay: not given
Settings: not given

Row | Compound | pIC50
1 | COc1cc(N2CCC(N3CCN(C)CC3)CC2)ccc1Nc1ncc(Cl)c(Nc2ccccc2C(=O)N(C)C)n1 | 8.21
2 | COc1cc(N2CCC(N3CCOCC3)CC2)ccc1Nc1ncc(Cl)c(Nc2ccccc2P(C)(C)=O)n1 | 7.33
3 | COc1cc(N2CCOCC2)ccc1Nc1ncc(Cl)c(Nc2ccccc2P(C)(C)=O)n1 | 7.29
4 | COc1cc(N2CCC(N3CCN(C)CC3)CC2)ccc1Nc1ncc(C)c(Nc2ccccc2P(C)(C)=O)n1 | 6.89
5 | COc1cc(N2CCC(N3CCN(C)CC3)CC2)ccc1Nc1ncc(Cl)c(Nc2ccccc2C(N)=O)n1 | 8.85
6 | COc1cc(N2CCN(C(C)=O)CC2)ccc1Nc1ncc(Cl)c(Nc2ccccc2P(C)(C)=O)n1 | 7.49
7 | COc1cc(N2CCC(N3CCN(C)CC3)CC2)ccc1Nc1ncc(Cl)c(Nc2ccccc2C#N)n1 | 7.29
8 | COc1cc(N2CCC(N3CCN(C)CC3)CC2)c(C)cc1Nc1ncc(Cl)c(Nc2ccccc2P(C)(C)=O)n1 | 7.57
9 | CNC(=O)CN1CCN(c2ccc(Nc3ncc(Cl)c(Nc4ccccc4P(C)(C)=O)n3)c(OC)c2)CC1 | 6.90
10 | COc1cc(N2CCCN(C)CC2)ccc1Nc1ncc(Cl)c(Nc2ccccc2P(C)(C)=O)n1 | 7.11

Biological target: Insulin receptor (Homo sapiens, UniProt P06213)
Assay: not given
Settings: not given

Insulin receptor, sequence (P06213 28-758 limits assumed): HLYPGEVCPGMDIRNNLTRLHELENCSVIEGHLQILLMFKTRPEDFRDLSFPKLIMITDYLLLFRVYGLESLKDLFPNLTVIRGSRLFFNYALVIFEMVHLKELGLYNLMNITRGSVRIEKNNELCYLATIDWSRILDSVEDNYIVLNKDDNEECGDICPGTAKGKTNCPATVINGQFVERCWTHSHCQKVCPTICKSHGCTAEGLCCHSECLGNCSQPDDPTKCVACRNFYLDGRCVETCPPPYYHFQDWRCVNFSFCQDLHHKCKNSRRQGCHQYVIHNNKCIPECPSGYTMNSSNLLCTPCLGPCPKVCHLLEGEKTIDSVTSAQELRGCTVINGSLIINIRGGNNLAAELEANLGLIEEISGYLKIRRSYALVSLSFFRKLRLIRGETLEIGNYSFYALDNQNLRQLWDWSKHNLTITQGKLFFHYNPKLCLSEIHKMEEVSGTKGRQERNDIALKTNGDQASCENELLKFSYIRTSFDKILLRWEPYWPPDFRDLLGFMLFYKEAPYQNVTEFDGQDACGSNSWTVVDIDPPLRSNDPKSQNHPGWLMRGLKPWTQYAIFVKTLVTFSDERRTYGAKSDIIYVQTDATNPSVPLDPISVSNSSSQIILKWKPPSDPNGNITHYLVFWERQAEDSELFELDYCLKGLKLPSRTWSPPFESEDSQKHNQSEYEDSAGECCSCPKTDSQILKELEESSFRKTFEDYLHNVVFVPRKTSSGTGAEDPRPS
Insulin receptor, sequence (P06213 763-1382 limits assumed): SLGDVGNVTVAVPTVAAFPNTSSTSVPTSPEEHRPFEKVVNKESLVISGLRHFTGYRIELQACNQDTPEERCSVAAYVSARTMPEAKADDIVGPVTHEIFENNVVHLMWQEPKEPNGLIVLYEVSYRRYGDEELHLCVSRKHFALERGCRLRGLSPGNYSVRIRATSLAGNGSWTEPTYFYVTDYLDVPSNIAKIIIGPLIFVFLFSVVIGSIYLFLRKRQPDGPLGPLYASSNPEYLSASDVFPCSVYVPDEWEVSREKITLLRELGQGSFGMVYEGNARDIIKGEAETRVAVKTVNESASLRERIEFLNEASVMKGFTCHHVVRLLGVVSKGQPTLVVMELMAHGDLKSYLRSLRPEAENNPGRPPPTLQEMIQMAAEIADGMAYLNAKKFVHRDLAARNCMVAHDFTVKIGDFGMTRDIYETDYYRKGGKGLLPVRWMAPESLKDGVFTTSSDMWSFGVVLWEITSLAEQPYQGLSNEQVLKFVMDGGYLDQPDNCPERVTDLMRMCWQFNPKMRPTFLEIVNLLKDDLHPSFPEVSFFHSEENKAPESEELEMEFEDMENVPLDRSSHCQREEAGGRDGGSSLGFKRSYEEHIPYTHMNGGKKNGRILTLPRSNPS

Row | Compound | pIC50
11 | COc1cc(N2CCC(N3CCN(C)CC3)CC2)ccc1Nc1ncc(Cl)c(Nc2ccccc2C(=O)N(C)C)n1 | 8.22
12 | COc1cc(N2CCC(N3CCOCC3)CC2)ccc1Nc1ncc(Cl)c(Nc2ccccc2P(C)(C)=O)n1 | 6.57
13 | COc1cc(N2CCOCC2)ccc1Nc1ncc(Cl)c(Nc2ccccc2P(C)(C)=O)n1 | 6.40
14 | COc1cc(N2CCC(N3CCN(C)CC3)CC2)ccc1Nc1ncc(C)c(Nc2ccccc2P(C)(C)=O)n1 | 6.32
15 | COc1cc(N2CCC(N3CCN(C)CC3)CC2)ccc1Nc1ncc(Cl)c(Nc2ccccc2C(N)=O)n1 | 8.47
16 | COc1cc(N2CCN(C(C)=O)CC2)ccc1Nc1ncc(Cl)c(Nc2ccccc2P(C)(C)=O)n1 | 6.99
17 | COc1cc(N2CCC(N3CCN(C)CC3)CC2)ccc1Nc1ncc(Cl)c(Nc2ccccc2C#N)n1 | 6.89
18 | COc1cc(N2CCC(N3CCN(C)CC3)CC2)c(C)cc1Nc1ncc(Cl)c(Nc2ccccc2P(C)(C)=O)n1 | 6.77
19 | CNC(=O)CN1CCN(c2ccc(Nc3ncc(Cl)c(Nc4ccccc4P(C)(C)=O)n3)c(OC)c2)CC1 | 6.34
20 | COc1cc(N2CCCN(C)CC2)ccc1Nc1ncc(Cl)c(Nc2ccccc2P(C)(C)=O)n1 | 6.47

System: not listed separately
Assay: AUC (0 to infinity) in CD rat at 3 mg/kg, iv by LC-MS/MS analysis
Format: ADME, organism-based
Parameters: dose 3 mg/kg, time infinity, route intravenous
Settings: CD, in vivo

Row | Compound | AUC(0-inf) [ng·h/mL]
21 | COc1cc(N2CCC(N3CCOCC3)CC2)ccc1Nc1ncc(Cl)c(Nc2ccccc2P(C)(C)=O)n1 | 17900

System: not listed separately
Assay: Clearance in CD rat at 3 mg/kg, iv by LC-MS/MS analysis
Format: ADME, organism-based
Settings: in vivo

Row | Compound | clearance [mL/min/kg]
22 | COc1cc(N2CCC(N3CCOCC3)CC2)ccc1Nc1ncc(Cl)c(Nc2ccccc2P(C)(C)=O)n1 | 2.83

System: not listed separately
Assay: Half life in CD rat at 3 mg/kg, iv by LC-MS/MS analysis
Format: ADME, organism-based
Settings: CD, in vivo

Row | Compound | half-life [h]
23 | COc1cc(N2CCC(N3CCOCC3)CC2)ccc1Nc1ncc(Cl)c(Nc2ccccc2P(C)(C)=O)n1 | 3.9

System: not listed separately
Assay: Volume of distribution at steady state in CD rat at 3 mg/kg, iv by LC-MS/MS analysis
Format: ADME, organism-based
Settings: CD, in vivo, read-out: Vdss

Row | Compound | Vd [L/kg]
24 | COc1cc(N2CCC(N3CCOCC3)CC2)ccc1Nc1ncc(Cl)c(Nc2ccccc2P(C)(C)=O)n1 | 0.78

System: not listed separately
Assay: Cmax in CD rat at 10 mg/kg, po by LC-MS/MS analysis
Format: ADME, organism-based
Parameters: dose 10 mg/kg, route oral
Settings: in vivo

Row | Compound | Cmax [ng/mL]
25 | COc1cc(N2CCC(N3CCOCC3)CC2)ccc1Nc1ncc(Cl)c(Nc2ccccc2P(C)(C)=O)n1 | 2840

System: not listed separately
Assay: AUC (0 to infinity) in CD rat at 10 mg/kg, po by LC-MS/MS analysis
Format: ADME, organism-based
Parameters: dose 10 mg/kg, route oral, time infinity
Settings: in vivo

Row | Compound | AUC(0-inf) [ng·h/mL]
26 | COc1cc(N2CCC(N3CCOCC3)CC2)ccc1Nc1ncc(Cl)c(Nc2ccccc2P(C)(C)=O)n1 | 43600

System: not listed separately
Assay: Tmax in CD rat at 10 mg/kg, po by LC-MS/MS analysis
Format: ADME, organism-based
Settings: in vivo

Row | Compound | Tmax [h]
27 | COc1cc(N2CCC(N3CCOCC3)CC2)ccc1Nc1ncc(Cl)c(Nc2ccccc2P(C)(C)=O)n1 | 2

System: not listed separately
Assay: Half life in CD rat at 10 mg/kg, po by LC-MS/MS analysis
Format: ADME, organism-based
Settings: in vivo

Row | Compound | half-life [h]
28 | COc1cc(N2CCC(N3CCOCC3)CC2)ccc1Nc1ncc(Cl)c(Nc2ccccc2P(C)(C)=O)n1 | 6.8

System: not listed separately
Assay: Oral bioavailability in CD rat at 10 mg/kg by LC-MS/MS analysis
Format: ADME, organism-based
Settings: in vivo

Row | Compound | bioavailability [%]
29 | COc1cc(N2CCC(N3CCOCC3)CC2)ccc1Nc1ncc(Cl)c(Nc2ccccc2P(C)(C)=O)n1 | 73

Biological target: T1, ALK tyrosine kinase receptor (Homo sapiens, UniProt Q9UM73)
Assay: Inhibition of ALK phosphorylation in mouse xenografted with human KARPAS299 cells assessed as p-ALK level at 25 mg/kg, po administered as single dose measured after 10 hrs relative to 2 hrs vehicle-treated tumor
Format: organism-based
Parameters: scale not given: the % may be the effect or the level left
Settings: KARPAS-299
Target sequence in this assay (Q9UM73 19-1620 limits assumed): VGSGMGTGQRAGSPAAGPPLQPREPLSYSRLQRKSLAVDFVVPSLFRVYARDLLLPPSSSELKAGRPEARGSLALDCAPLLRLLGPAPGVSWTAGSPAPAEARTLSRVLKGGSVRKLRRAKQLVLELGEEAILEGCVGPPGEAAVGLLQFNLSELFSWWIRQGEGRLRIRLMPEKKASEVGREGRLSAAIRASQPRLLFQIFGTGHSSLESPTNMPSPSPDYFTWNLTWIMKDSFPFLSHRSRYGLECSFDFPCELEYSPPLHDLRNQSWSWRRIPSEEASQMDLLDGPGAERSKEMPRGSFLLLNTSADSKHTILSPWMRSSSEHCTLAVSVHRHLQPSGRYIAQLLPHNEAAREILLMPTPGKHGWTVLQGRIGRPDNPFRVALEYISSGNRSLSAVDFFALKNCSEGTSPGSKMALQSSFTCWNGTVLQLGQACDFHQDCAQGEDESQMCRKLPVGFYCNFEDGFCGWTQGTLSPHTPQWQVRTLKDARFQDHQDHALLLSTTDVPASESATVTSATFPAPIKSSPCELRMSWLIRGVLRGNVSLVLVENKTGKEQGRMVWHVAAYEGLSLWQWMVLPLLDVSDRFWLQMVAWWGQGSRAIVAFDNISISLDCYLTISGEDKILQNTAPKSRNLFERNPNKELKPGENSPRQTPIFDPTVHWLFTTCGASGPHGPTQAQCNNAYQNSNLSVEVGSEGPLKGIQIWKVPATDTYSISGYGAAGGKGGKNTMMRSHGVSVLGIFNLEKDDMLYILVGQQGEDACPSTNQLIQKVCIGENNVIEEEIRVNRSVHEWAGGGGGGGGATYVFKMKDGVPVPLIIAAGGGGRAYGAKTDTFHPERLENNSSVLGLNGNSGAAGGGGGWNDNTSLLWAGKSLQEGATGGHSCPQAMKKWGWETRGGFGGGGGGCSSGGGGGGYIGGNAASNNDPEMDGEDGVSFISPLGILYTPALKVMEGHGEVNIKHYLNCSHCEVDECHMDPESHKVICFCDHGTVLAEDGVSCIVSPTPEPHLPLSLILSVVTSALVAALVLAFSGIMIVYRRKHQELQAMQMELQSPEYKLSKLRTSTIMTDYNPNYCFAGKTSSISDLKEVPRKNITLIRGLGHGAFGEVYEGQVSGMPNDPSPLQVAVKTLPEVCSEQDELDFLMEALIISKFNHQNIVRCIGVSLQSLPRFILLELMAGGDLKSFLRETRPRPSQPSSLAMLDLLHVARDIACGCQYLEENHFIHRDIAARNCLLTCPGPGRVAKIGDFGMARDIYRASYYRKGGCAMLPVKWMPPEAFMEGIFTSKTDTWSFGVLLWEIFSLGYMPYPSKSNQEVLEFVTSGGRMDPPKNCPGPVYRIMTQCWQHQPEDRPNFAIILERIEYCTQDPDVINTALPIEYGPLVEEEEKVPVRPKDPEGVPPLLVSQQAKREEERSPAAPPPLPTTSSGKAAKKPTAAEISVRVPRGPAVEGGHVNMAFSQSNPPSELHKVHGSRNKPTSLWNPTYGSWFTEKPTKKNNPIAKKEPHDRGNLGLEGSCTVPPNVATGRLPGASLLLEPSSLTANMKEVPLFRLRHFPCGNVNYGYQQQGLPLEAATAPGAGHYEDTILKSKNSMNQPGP

Row | Compound | Activity [%]
30 | COc1cc(N2CCC(N3CCOCC3)CC2)ccc1Nc1ncc(Cl)c(Nc2ccccc2P(C)(C)=O)n1 | 15

Biological target: T1, ALK tyrosine kinase receptor
Assay: Inhibition of ALK phosphorylation in mouse xenografted with human KARPAS299 cells assessed as p-ALK level at 25 mg/kg, po administered as single dose measured after 16 hrs relative to 2 hrs vehicle-treated tumor
Format: organism-based
Parameters: scale not given: the % may be the effect or the level left
Settings: KARPAS-299
Target sequence in this assay (Q9UM73 19-1620 limits assumed): as above

Row | Compound | Activity [%]
31 | COc1cc(N2CCC(N3CCOCC3)CC2)ccc1Nc1ncc(Cl)c(Nc2ccccc2P(C)(C)=O)n1 | 52

Biological target: T1, ALK tyrosine kinase receptor
Assay: Inhibition of ALK phosphorylation in mouse xenografted with human KARPAS299 cells assessed as p-ALK level at 25 mg/kg, po administered as single dose measured after 24 hrs relative to 2 hrs vehicle-treated tumor
Format: organism-based
Parameters: scale not given: the % may be the effect or the level left
Settings: KARPAS-299
Target sequence in this assay (Q9UM73 19-1620 limits assumed): as above

Row | Compound | Activity [%]
32 | COc1cc(N2CCC(N3CCOCC3)CC2)ccc1Nc1ncc(Cl)c(Nc2ccccc2P(C)(C)=O)n1 | 50

Biological target: T1, ALK tyrosine kinase receptor
Assay: not given
Settings: not given
Target sequence in this assay (Q9UM73 whole entry): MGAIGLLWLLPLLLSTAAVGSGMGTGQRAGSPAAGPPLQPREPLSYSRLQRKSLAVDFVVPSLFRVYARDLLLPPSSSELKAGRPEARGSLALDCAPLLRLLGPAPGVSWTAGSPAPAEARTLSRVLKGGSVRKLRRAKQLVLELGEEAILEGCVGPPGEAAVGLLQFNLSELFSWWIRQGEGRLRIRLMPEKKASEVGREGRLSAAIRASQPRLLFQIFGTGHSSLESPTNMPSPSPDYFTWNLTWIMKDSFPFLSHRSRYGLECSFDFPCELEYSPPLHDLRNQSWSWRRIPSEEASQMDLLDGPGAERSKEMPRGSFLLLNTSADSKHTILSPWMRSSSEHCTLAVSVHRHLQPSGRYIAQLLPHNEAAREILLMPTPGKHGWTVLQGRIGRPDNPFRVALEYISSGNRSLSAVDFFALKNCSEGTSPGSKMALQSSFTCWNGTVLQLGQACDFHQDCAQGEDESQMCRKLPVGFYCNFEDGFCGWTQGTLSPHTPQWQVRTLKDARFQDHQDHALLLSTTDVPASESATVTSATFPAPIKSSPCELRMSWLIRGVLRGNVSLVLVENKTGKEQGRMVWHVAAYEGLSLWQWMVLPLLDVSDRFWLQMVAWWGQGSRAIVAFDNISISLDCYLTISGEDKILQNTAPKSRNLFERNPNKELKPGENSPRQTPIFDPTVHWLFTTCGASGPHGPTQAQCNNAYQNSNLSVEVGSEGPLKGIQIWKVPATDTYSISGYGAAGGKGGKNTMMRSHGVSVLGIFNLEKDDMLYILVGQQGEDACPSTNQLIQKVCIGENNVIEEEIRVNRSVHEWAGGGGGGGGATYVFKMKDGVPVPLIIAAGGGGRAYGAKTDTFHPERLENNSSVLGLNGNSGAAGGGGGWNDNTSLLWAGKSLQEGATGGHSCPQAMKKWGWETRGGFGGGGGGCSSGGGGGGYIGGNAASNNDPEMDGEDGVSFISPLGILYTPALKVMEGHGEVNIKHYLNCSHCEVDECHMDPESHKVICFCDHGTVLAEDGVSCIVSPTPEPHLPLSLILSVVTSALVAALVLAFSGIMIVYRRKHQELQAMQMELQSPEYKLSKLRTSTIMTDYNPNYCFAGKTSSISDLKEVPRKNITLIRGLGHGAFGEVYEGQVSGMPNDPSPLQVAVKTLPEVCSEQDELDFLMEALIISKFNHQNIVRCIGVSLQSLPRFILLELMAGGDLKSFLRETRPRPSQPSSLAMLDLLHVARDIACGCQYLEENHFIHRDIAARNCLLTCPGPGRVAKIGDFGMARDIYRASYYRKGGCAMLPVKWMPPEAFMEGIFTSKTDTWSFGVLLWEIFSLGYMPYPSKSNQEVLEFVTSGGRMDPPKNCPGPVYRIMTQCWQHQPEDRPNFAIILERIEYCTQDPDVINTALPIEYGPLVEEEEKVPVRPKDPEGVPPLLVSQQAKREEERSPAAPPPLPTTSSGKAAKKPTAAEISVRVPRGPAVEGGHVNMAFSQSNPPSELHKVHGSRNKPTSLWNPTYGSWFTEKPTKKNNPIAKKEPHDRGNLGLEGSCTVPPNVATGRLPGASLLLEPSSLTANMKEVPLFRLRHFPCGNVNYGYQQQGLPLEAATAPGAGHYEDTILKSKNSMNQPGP

Row | Compound | pIC50
33 | COc1cc(N2CCC(N3CCN(C)CC3)CC2)ccc1Nc1ncc(Cl)c(Nc2ccccc2C(=O)N(C)C)n1 | 8.32
34 | COc1cc(N2CCC(N3CCOCC3)CC2)ccc1Nc1ncc(Cl)c(Nc2ccccc2P(C)(C)=O)n1 | 9.31
35 | COc1cc(N2CCOCC2)ccc1Nc1ncc(Cl)c(Nc2ccccc2P(C)(C)=O)n1 | 9.62
36 | COc1cc(N2CCC(N3CCN(C)CC3)CC2)ccc1Nc1ncc(C)c(Nc2ccccc2P(C)(C)=O)n1 | 9.38
37 | COc1cc(N2CCC(N3CCN(C)CC3)CC2)ccc1Nc1ncc(Cl)c(Nc2ccccc2C(N)=O)n1 | 9.10
38 | COc1cc(N2CCC(N3CCN(C)CC3)CC2)ccc1Nc1ncc(Cl)c(Nc2ccccc2C#N)n1 | 8.73
39 | COc1cc(N2CCC(N3CCN(C)CC3)CC2)c(C)cc1Nc1ncc(Cl)c(Nc2ccccc2P(C)(C)=O)n1 | 9.07
40 | CNC(=O)CN1CCN(c2ccc(Nc3ncc(Cl)c(Nc4ccccc4P(C)(C)=O)n3)c(OC)c2)CC1 | 8.51
41 | COc1cc(N2CCCN(C)CC2)ccc1Nc1ncc(Cl)c(Nc2ccccc2P(C)(C)=O)n1 | 9.14

System: not listed separately
Assay: cells
Settings: Homo sapiens, KARPAS-299, 72 h
Description: Antiproliferative activity against human ALK-positive KARPAS299 cells assessed as reduction in cell viability measured after 72 hrs by CellTiter 96 aqueous one solution cell proliferation assay

Row | Compound | pIC50 | GI50 [nM]
42 | COc1cc(N2CCC(N3CCOCC3)CC2)ccc1Nc1ncc(Cl)c(Nc2ccccc2P(C)(C)=O)n1 | 7.21 | 
43 | COc1cc(N2CCOCC2)ccc1Nc1ncc(Cl)c(Nc2ccccc2P(C)(C)=O)n1 | 7.11 | 
44 | COc1cc(N2CCC(N3CCN(C)CC3)CC2)ccc1Nc1ncc(C)c(Nc2ccccc2P(C)(C)=O)n1 | 7.33 | 
45 | COc1cc(N2CCN(C(C)=O)CC2)ccc1Nc1ncc(Cl)c(Nc2ccccc2P(C)(C)=O)n1 | 7.10 | 
46 | COc1cc(N2CCC(N3CCN(C)CC3)CC2)c(C)cc1Nc1ncc(Cl)c(Nc2ccccc2P(C)(C)=O)n1 |  | 16
47 | CNC(=O)CN1CCN(c2ccc(Nc3ncc(Cl)c(Nc4ccccc4P(C)(C)=O)n3)c(OC)c2)CC1 | 6.57 | 
48 | COc1cc(N2CCCN(C)CC2)ccc1Nc1ncc(Cl)c(Nc2ccccc2P(C)(C)=O)n1 | 7.27 | 

System: not listed separately
Assay: cells
Settings: Homo sapiens, U-937, 72 h
Description: Antiproliferative activity against human ALK-negative U937 cells assessed as reduction in cell viability measured after 72 hrs by CellTiter 96 aqueous one solution cell proliferation assay

Row | Compound | pIC50 | GI50 [nM]
49 | COc1cc(N2CCC(N3CCOCC3)CC2)ccc1Nc1ncc(Cl)c(Nc2ccccc2P(C)(C)=O)n1 | 5.25 | 
50 | COc1cc(N2CCOCC2)ccc1Nc1ncc(Cl)c(Nc2ccccc2P(C)(C)=O)n1 | 5.22 | 
51 | COc1cc(N2CCC(N3CCN(C)CC3)CC2)ccc1Nc1ncc(C)c(Nc2ccccc2P(C)(C)=O)n1 | 5.28 | 
52 | COc1cc(N2CCN(C(C)=O)CC2)ccc1Nc1ncc(Cl)c(Nc2ccccc2P(C)(C)=O)n1 | 5.26 | 
53 | COc1cc(N2CCC(N3CCN(C)CC3)CC2)c(C)cc1Nc1ncc(Cl)c(Nc2ccccc2P(C)(C)=O)n1 |  | 1280
54 | CNC(=O)CN1CCN(c2ccc(Nc3ncc(Cl)c(Nc4ccccc4P(C)(C)=O)n3)c(OC)c2)CC1 | 5.15 | 
55 | COc1cc(N2CCCN(C)CC2)ccc1Nc1ncc(Cl)c(Nc2ccccc2P(C)(C)=O)n1 | 5.53 | 

Reference: ChEMBL document CHEMBL3822358 (J Med Chem, 2016)
